The target in experiment [1] is T1, PHD2181-402 (Homo sapiens, UniProt Q9GZT9).
T1 construct: made in house
The experiment can be described thus: bioluminescent succinate detection assay of recombinant PHD2181-402 activity/inhibition. It is filed as biochemical. An excerpt:
To pinpoint if butyrate inhibits PHDs directly, we expressed recombinant PHD derived from the human PHD2 sequence. There are three human PHDs: PHD1, PHD2, and PHD3, with PHD2 being the most abundant and expressed in the majority of tissues, the most important regulator of HIF, particularly HIF-1α, and the only PHD that is embryonically lethal when deleted. PHD1 is exclusively localized to the nucleus, whereas PHD2 is mainly cytoplasmic, and PHD3 is both. […] Sequence comparisons and modeling studies indicate that the PHD2 active site is highly conserved among the PHDs.
IC50s depend on exact experimental conditions, making direct comparisons and global applications difficult.

The target in experiment [2] is T1, PHD2181-402. Nature of the experiment: microscale thermophoresis (MST) binding to PHD2181-402. An excerpt:
Measurements were repeated 3 times.
Uncompetitive inhibitors only bind to the enzyme substrate complex, whereas noncompetitive inhibitors can bind to enzyme alone or enzyme substrate complex since the inhibitor has a unique binding site distinct from the substrate binding site. […] Thus, our findings indicate that butyrate functions as a noncompetitive PHD inhibitor with a unique binding site.
A general note: Microscale thermophoresis detects binding through changes in fluorescence in a small temperature gradient.

Experiment [3] deals with HIF-1α in murine enteroids. Nature of the experiment: HIF stabilization in differentiated murine enteroids. It is filed as cell-based. The following applies: 10 mM butyrate with or without 1 mM MCPA, 4 h.
Experiment [4] concerns HIF1α in T84 cells. The experiment can be described thus: HIF1α immunoblot in T84 cells (MBA vs BA). It is filed as cell-based. To be noted: T84 cells. The procedure:
(A) Structures of butyrate derivatives investigated in initial screen for HIF stabilization. Immunoblot of HIF1a protein levels in Caco-2 cells (B) and T84 cells (C) exposed to veh (HBSS+), […], or 5 mM butyrate derivatives for 6h. (D) Dose response study of HIF1a accumulation in T84 cells treated with decreasing concentrations of MBA and BA for 6 h.
(A) Immunoblots of HIF1a protein over time after exposure of T84 cells to 5 mM BA and MBA. (B) Mesoscale assay of HIF1a protein over time in caco-2 cells treated with 5 mM MBA compared to veh. (C) HIF1a and HIF target (BNIP3) protein in caco-2 cells exposed to veh (HBSS+), […] or 5 mM MBA. Data are presented as mean+S.E.M, *p<0.05, **p<0.01, ***p<0.001.
Endogenous and non-endogenous butyrate derivatives with specifically chosen functional groups at different positions within the small molecule and assess their effects on HIF stabilization (FIG. 21A). To study a small library of butyrate derivatives we employed an electrochemiluminescence based assay to quantify HIF1α levels using the Meso Scale Discovery (HIF1α MSD assay, http://www.mesoscale.com) technology. Similar to the sandwich enzyme-linked immunosorbent assay (ELISA), this technology captures and detects HIF1α protein using two specific antibodies but utilizes electrochemiluminescence-based signal generation and detection. Using lysates from intestinal epithelial cells (IECs) caco-2 and T84 exposed to a physiological relevant concentration of 5 mM butyrate derivatives for 4h, this assay was employed to determine HIF1α protein concentration. A bona-fide and potent PHD2 inhibitor (IOX4) was used to stabilize HIF1α as a positive control. Various butyrate derivatives increased HIF1α relative concentration in both cell lines compared to low signals detected in untreated lysates. […] We decided to focus on this interesting butyrate derivative for further studies.
To elucidate the effectiveness of MBA to stabilize HIF1α over time and possibly shine light on how quickly it can be metabolized in-vitro, time-course studies where performed between BA and MBA, IOX4 was used as a positive control. […] Employing the HIF1α MSD assay, we screened for various timepoints in caco-2 cell lysates exposed to MBA (5 mM). […] BNIP3 is involved in cell survival and is a known HIF1α target that is induced through chemical stabilization of HIF or hypoxia. BNIP3 promoter comprises a functional hypoxia response element (HRE) and can be activated by HIF1α.[5] Parallel to our HIF stabilization time course studies, we wanted to assess the transcriptional activity of the stabilized protein over time.
(Immunoblotting shows a protein as a band on a membrane.)

Experiment [5] deals with HIF target genes in T84 cells. The experiment can be described thus: real-time PCR of HIF target genes BNIP3 and CAIX in T84 cells. It is filed as cell-based. To be noted: 16h. As to the method:
(A) Exposure of T84 cells to Veh, BA or MBA (5 mM, 16 h) induced HIF target gene expression of CAIX and BNIP3. […] (C) Non-targeting control and T84 HIF1b depleted cells were analyzed for HIF1b expression by western blotting, shown with a representative blot. Quantification of HIF1b decrease was performed using ACTB-normalized densitometry. qPCR data was analyzed by One-way ANOVA with Bonferroni for post hoc correction and presented as mean±S.E.M, **p<0.01, ***p<0.001, ****p<0.0001 of three independent experiments.
Following these findings, we then explored if the MBA-induced stabilization of HIF was reflected in the transcriptional regulation of target genes. We utilized real-time PCR to study the influence of MBA mediated HIF stabilization in the induction of established HIF targets, BNIP3 (cell survival) and CAIX (pH regulation).
Furthermore, to confirm MBA-induced HIF transcriptional activity, we quantified the induction of BNIP3 and CAIX by BA or MBA (5 mM, 16h) in lentiviral shRNA-mediated knockdown of HIF1β relative to non-targeting shRNA controls. […] These findings confirm that through MBA exposure, HIF is stabilized and it is transcriptionally active.
A general note: In qPCR the cycle at which signal appears reflects the starting amount.

T1 sequence (Q9GZT9 181-402): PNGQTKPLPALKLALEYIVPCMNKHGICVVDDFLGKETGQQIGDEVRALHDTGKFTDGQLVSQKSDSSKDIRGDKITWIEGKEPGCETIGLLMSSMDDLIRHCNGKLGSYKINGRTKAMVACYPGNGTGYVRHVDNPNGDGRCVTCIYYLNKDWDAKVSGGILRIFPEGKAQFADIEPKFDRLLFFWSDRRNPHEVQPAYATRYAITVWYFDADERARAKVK

Regarding `CCCC(=O)O` [Butyrate, Butyric acid], the “mode of PHD inhibition” value in experiment [1] was “noncompetitive”. The IC50 in experiment [1] (1 μM PHD2181-402, 10 μM 2-OG, 10-minute reaction, n=5-12, error: SEM, read-out: true half maximal inhibitory concentration (IC50) for PHD2181-402) is 5.3 mM. Besides, the inhibition constant Ki – broadly, the equilibrium dissociation constant of an inhibitor or competing ligand from its target – in experiment [1] (IC50 to Ki conversion equation of Cer et al., read-out: noncompetitive Ki for PHD2181-402) was 5.3 mM. Also, the dissociation constant Kd (in general, the concentration at which binding is half-saturated) in experiment [2] (25 nM PHD2181-402, without 2-OG, read-out: dissociation constant (KD)) worked out at 2 ± 3 mM. Further, the “binding to PHD2181-402 in the presence of 2-OG by MST” value in experiment [2] (with 500 nM 2-OG) was “no butyrate binding”. Further, in experiment [3], the HIF-1α protein expression result is reported as “increased HIF-1α protein expression” and the “HIF-1α target gene expression” value is “induced expression of HIF-1α target genes”. In addition, in experiment [4] (5 mM BA and MBA, IOX4 positive control), the “HIF1α stabilization over time (immunoblot)” value is “no longer stabilized at 48h”. Further, the “dose response of HIF1α accumulation” value in experiment [4] (decreasing concentrations, 6 h) is recorded as “quickly becomes ineffective”. Moreover, in experiment [5] (T84, 5 mM), the “induction of HIF target genes BNIP3 and CAIX” value is listed as “significant induction”. Moreover, in experiment [5] (T84 HIF1β shRNA knockdown, 5 mM), the “induction of BNIP3 and CAIX in cells lacking HIF1β” value is listed as “complete loss of induction”.

For the origin of these results see patent publication US20250235418A1, “Butyrate Analogues and Methods of Use for HIF Stabilization and Treatment of Bowel Disease” (THE REGENTS OF THE UNIVERSITY OF COLORADO, A BODY CORPORATE, priority 2022, published 2025).
